Laboratory results taken from patent US20260364184A1, “COMPOUND BASED ON OXOISOINDOLINYL-SUBSTITUTED TETRAHYDROPYRIMIDINE-DIONE AND USE THEREOF” (GLUETACS THERAPEUTICS (SHANGHAI) CO., LTD., priority 2023, published 2026).

These compounds were tested against T1, IRAK4 (Homo sapiens, UniProt Q9NWZ3) (assay: Western blot degradation of IRAK4). Details: hPBMC Cell; 24 hours.
T1 construct: expression of target proteins in cells; endogenous in cells
T1 sequence (Q9NWZ3 1-460): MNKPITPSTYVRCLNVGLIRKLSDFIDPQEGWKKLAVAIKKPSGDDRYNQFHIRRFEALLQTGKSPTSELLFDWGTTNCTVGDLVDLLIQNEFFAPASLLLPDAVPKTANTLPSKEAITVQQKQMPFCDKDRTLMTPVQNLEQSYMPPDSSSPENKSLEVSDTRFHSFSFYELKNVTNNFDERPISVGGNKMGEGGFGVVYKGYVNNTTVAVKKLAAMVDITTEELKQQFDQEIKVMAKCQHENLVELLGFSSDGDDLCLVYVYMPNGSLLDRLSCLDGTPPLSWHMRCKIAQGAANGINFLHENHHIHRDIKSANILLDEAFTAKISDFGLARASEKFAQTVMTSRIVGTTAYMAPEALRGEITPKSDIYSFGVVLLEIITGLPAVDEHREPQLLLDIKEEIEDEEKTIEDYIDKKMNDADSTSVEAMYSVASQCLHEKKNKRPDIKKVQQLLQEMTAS
Type: cell-based
Protocol: Conventional Western blot assay was performed to evaluate the effects of the compounds of the present disclosure on the expression of target proteins in cells.
(1) Cell Seeding and Protein Harvesting: The selected cells were processed according to the cell seeding procedure and protein harvesting procedure in Table II-2.
(2) To the collected supernatant, 5×SDS sample loading buffer was added, followed by denaturation at 95 °C for 5 minutes. The denatured samples were then separated by SDS-PAGE electrophoresis on a polyacrylamide gel. Proteins were transferred to a nitrocellulose membrane (0.45 μm NC membrane), blocked with blocking buffer at room temperature for 1 hour, and subjected to antibody incubation and development procedures according to the antibody manufacturer's instructions (Cell Signaling Technology).
Half-Maximal Degradation Concentration value (the drug concentration required for degrading proteins by 50%, abbreviated as DC50) reads method: comparing the grayscale values of Western blot bands from drug-treated samples with those from blank DMSO-treated controls, and identifying the drug concentration range at which the grayscale value is half that of the DMSO-treated control bands.
DC50 values can be calculated using ImageJ software to measure grayscale values of Western blot bands from drug-treated samples. The concentration-response curve is fitted to estimate the drug concentration corresponding to half the grayscale value.
Target protein remaining (%) refers to the percentage of target protein remaining in cells after treatment with protein degrader compounds.
Calculation method for target protein remaining (%): Use ImageJ software to measure grayscale values of Western blot bands from drug (protein degrader)-treated samples. The grayscale value of drug-treated bands is divided by that of internal control protein bands, and the resulting quotient is normalized to obtain the relative percentage of remaining target protein after protein degrader treatment.
Target protein degradation rate (%)=1−target protein remaining (%).

| Degradation of substrate protein IRAK4 (substrate protein remaining %) | Structure (SMILES) |
| --- | --- |
| A (0%≤substrate protein remaining %≤80%) | COc1cc2nn(C3CCN(CC4CCN(c5ccc6c(c5)C(=O)N(N5CCC(=O)NC5=O)C6=O)CC4)CC3)cc2cc1NC(=O)c1cccc(C(F)(F)F)c1 [GT-04877, N-(2-(1-((1-(2-(2,4-dioxotetrahydropyrimidin-1(2H)-yl)-1,3-dioxoisoindolin-5-yl)piperidin-4-yl)methyl)piperidin-4-yl)-6-methoxy-2H-indazol-5-yl)-3-(trifluoromethyl)benzamide] |
| A (0%≤substrate protein remaining %≤80%) | CC(C)(O)c1cc2nn(C3CCN(CC4CCN(C5CCN(c6ccc7c(c6)C(=O)N(N6CCC(=O)NC6=O)C7=O)CC5)CC4)CC3)cc2cc1NC(=O)c1cccc(C(F)(F)F)n1 [GT-05290, N-(2-(1-((1′-(2-(2,4-dioxotetrahydropyrimidin-1(2H)-yl)-1,3-dioxoisoindolin-5-yl)-[1,4′-bipiperidin]-4-yl)methyl)piperidin-4-yl)-6-(2-hydroxypropan-2-yl)-2H-indazol-5-yl)-6-(trifluoromethyl) picolinamide] |
| A (0%≤substrate protein remaining %≤80%) | COc1ccc2cn(C3CCN(Cc4ccc5c(c4)CN(N4CCC(=O)NC4=O)C5=O)CC3)nc2c1NC(=O)c1cccc(C(F)(F)F)c1 [GT-04884, N-(2-(1-((2-(2,4-dioxotetrahydropyrimidin-1(2H)-yl)-1-oxoisoindolin-5-yl)methyl)piperidin-4-yl)-6-methoxy-2H-indazol-7-yl)-3-(trifluoromethyl)benzamide] |
| A (0%≤substrate protein remaining %≤80%) | COc1cc2nn([C@H]3CC[C@H](CN4CCN(c5cc(F)c6c(c5)C(=O)N(N5CCC(=O)NC5=O)C6=O)CC4)CC3)cc2cc1NC(=O)c1cccc(C(F)(F)F)c1 [GT-08670, N-(2-((1r,4r)-4-((4-(2-(2,4-dioxotetrahydropyrimidin-1(2H)-yl)-7-fluoro-1,3-dioxoisoindolin-5-yl)piperazin-1-yl)methyl)cyclohexyl)-6-methoxy-2H-indazol-5-yl)-3-(trifluoromethyl)benzamide] |
| A (0%≤substrate protein remaining %≤80%) | COc1cc2nn([C@H]3CC[C@H](CN4C5CC4CN(c4ccc6c(c4)C(=O)N(N4CCC(=O)NC4=O)C6=O)C5)CC3)cc2cc1NC(=O)c1cccc(C(F)(F)F)c1 [GT-08666, N-(2-((1r,4r)-4-((3-(2-(2,4-dioxotetrahydropyrimidin-1(2H)-yl)-1,3-dioxoisoindolin-5-yl)-3,6-diazabicyclo[3.1.1]heptan-6-yl)methyl)cyclohexyl)-6-methoxy-2H-indazol-5-yl)-3-(trifluoromethyl)benzamide] |

The remaining lines, values behind:

| Structure (SMILES) | Degradation of substrate protein IRAK4 (substrate protein remaining %) |
| --- | --- |
| O=C1CCN(N2C(=O)c3ccc(N4CCC(N5CCN(C[C@H]6CC[C@H](n7cc(NC(=O)c8cnn9ccc(N%10C[C@H]%11C[C@@H]%10CO%11)nc89)c(C(F)F)n7)CC6)CC5)CC4)cc3C2=O)C(=O)N1 [GT-05122, 5-((1R,4R)-2-oxa-5-azabicyclo[2.2.1]heptan-5-yl)-N-(3-(difluoromethyl)-1-((1r,4R)-4-((4-(1-(2-(2,4-dioxotetrahydropyrimidin-1(2H)-yl)-1,3-dioxoisoindolin-5-yl)piperidin-4-yl)piperazin-1-yl)methyl)cyclohexyl)-1H-pyrazol-4-yl)pyrazolo[1,5-a]pyrimidine-3-carboxamide] | A (0%≤substrate protein remaining %≤80%) |
| CC(C)Nc1cc(-n2ccc3cc(C#N)cnc32)ncc1C(=O)NC1CCN(Cc2ccc3c(c2)C(=O)N(N2CCC(=O)NC2=O)C3=O)CC1 [GT-05326, 6-(5-cyano-1H-pyrrolo[2,3-b]pyridin-1-yl)-N-(1-((2-(2,4-dioxotetrahydropyrimidin-1(2H)-yl)-1,3-dioxoisoindolin-5-yl)methyl)piperidin-4-yl)-4-((isopropyl)amino) nicotinamide] | A (0%≤substrate protein remaining %≤80%) |
| COc1cc2nn(C3CCN(Cc4ccc5c(c4)CN(N4CCC(=O)NC4=O)C5=O)CC3)cc2cc1NC(=O)c1cccc(C(F)(F)F)c1 [GT-04876, N-(2-(1-((2-(2,4-dioxotetrahydropyrimidin-1(2H)-yl)-1-oxoisoindolin-5-yl)methyl)piperidin-4-yl)-6-methoxy-2H-indazol-5-yl)-3-(trifluoromethyl)benzamide] | A (0%≤substrate protein remaining %≤80%) |
| COc1cc2nn([C@H]3CC[C@H](CN4CCN(C5CCN(c6ccc7c(c6)C(=O)N(N6CCC(=O)NC6=O)C7=O)CC5)CC4)CC3)cc2cc1NC(=O)c1cccc(C(F)(F)F)c1 [GT-08671, N-(2-((1r,4r)-4-((4-(1-(2-(2,4-dioxotetrahydropyrimidin-1(2H)-yl)-1,3-dioxoisoindolin-5-yl)piperidin-4-yl)piperazin-1-yl)methyl)cyclohexyl)-6-methoxy-2H-indazol-5-yl)-3-(trifluoromethyl)benzamide] | A (0%≤substrate protein remaining %≤80%) |
| O=C1CCN(N2C(=O)c3ccc(N4CCN(C[C@H]5CC[C@H](n6cc(NC(=O)c7cnn8ccc(N9C[C@H]%10C[C@@H]9CO%10)nc78)c(C(F)F)n6)CC5)CC4)c(F)c3C2=O)C(=O)N1 [GT-05827, 5-((1R,4R)-2-oxa-5-azabicyclo[2.2.1]heptan-5-yl)-N-(3-(difluoromethyl)-1-((1r,4R)-4-((4-(2-(2,4-dioxotetrahydropyrimidin-1(2H)-yl)-4-fluoro-1,3-dioxoisoindolin-5-yl)piperazin-1-yl)methyl)cyclohexyl)-1H-pyrazol-4-yl)pyrazolo[1,5-a]pyrimidine-3-carboxamide] | A (0%≤substrate protein remaining %≤80%) |
| COc1cc2nn([C@H]3CC[C@H](CN4CCN(c5ccc6c(c5F)C(=O)N(N5CCC(=O)NC5=O)C6=O)CC4)CC3)cc2cc1NC(=O)c1cccc(C(F)(F)F)n1 [GT-08656, N-(2-((1r,4r)-4-((4-(2-(2,4-dioxotetrahydropyrimidin-1(2H)-yl)-4-fluoro-1,3-dioxoisoindolin-5-yl)piperazin-1-yl)methyl)cyclohexyl)-6-methoxy-2H-indazol-5-yl)-6-(trifluoromethyl) picolinamide] | A (0%≤substrate protein remaining %≤80%) |
| O=C1CCN(N2C(=O)c3ccc(N4CCC(CN5CCC(n6cc(NC(=O)c7cnn8ccc(N9C[C@H]%10C[C@@H]9CO%10)nc78)c(C(F)F)n6)CC5)CC4)cc3C2=O)C(=O)N1 [GT-05056, 5-((1R,4R)-2-oxa-5-azabicyclo[2.2.1]heptan-5-yl)-N-(3-(difluoromethyl)-1-(1-((1-(2-(2,4-dioxotetrahydropyrimidin-1(2H)-yl)-1,3-dioxoisoindolin-5-yl)piperidin-4-yl)methyl)piperidin-4-yl)-1H-pyrazol-4-yl)pyrazolo[1,5-a]pyrimidine-3-carboxamide] | A (0%≤substrate protein remaining %≤80%) |
| COc1cc2nn(C3CCN(CC4CCN(c5cccc6c5C(=O)N(N5CCC(=O)NC5=O)C6=O)CC4)CC3)cc2cc1NC(=O)c1cccc(C(F)(F)F)c1 [GT-05815, N-(2-(1-((1-(2-(2,4-dioxotetrahydropyrimidin-1(2H)-yl)-1,3-dioxoisoindolin-4-yl)piperidin-4-yl)methyl)piperidin-4-yl)-6-methoxy-2H-indazol-5-yl)-3-(trifluoromethyl)benzamide] | A (0%≤substrate protein remaining %≤80%) |
